Measurements as given in patent publication US9730906B2, “α-derivatives of cis-monounsaturated fatty acids for use as medicines” (UNIVERSITAT DE LES ILLES BALEARS, priority 2008, dated 2017).

Columns and labels:
[1] = Body weight of rats on cafeteria diet, no pre-treatment (Table 5); format: in vivo, rat; conditions: cafeteria diet for 2 weeks, 300 mg/kg daily oral, no pre-treatment
From the text: The weight of treated animals was statistically less than the weight of obese control rats and statistically indistinguishable from that of lean control rats.

SF767 human tumour cells = experiment: Growth of SF767 tumour cells in culture; format: cell-based; parameters: key to Anti-tumour effect: + [inhibition of growth]; ++ [total halt of growth]; +++ [total removal of tumour cells]; key to Mechanism of action: P [anti-proliferative]; D [differentiation]; A [apoptosis]; conditions: for IC50: concentration that reduces the number of cells to half
Protocol: In a second experimental series, designed to discover whether these molecules are effective in treatment of different types of tumours, the effect of OHOD at various concentrations on human cells of different types of cancer was studied. These experiments were performed as described before, except that the M220 and HT-29 cell lines were cultured in DMEM medium and the MDA-MB-231 line was incubated in Leibowitz L-15 medium supplemented with 15% foetal bovine […]. […] Where the nature of the tumour process requires, application can be topical (use on the skin of active products for the treatment of melanoma and other cutaneous abnormalities of cancerous nature), which can be considered as cosmetic treatments when attempts are made to correct aesthetic defects.

hypertensive rats = experiment: Arterial pressure in hypertensive rats after 8-day treatment (Table 5); format: in vivo, rat; conditions: arterial pressure, hypertensive rats, 8-day treatment, 400 mg/kg oral
[2] = Levels of cholesterol, triglycerides and glucose in rats after oral treatment; format: in vivo, rat; conditions: for % control CHO (cholesterol) / % control TG (triglycerides): rats, daily dose of 600 mg/kg oral, untreated controls = 100%
Protocol: FIG. 13. The four bars, from left to right respectively, show the effect of treatments with vehicle (control, first bar), OHOD at 200 mg/kg (second bar), OHOD at 400 mg/kg (third bar) and OHOD at 600 mg/kg (fourth bar) on the cholesterol levels (group of four bars to the left), triglycerides (group of four bars in the middle) and glucose (group of four bars to the right). The treatments were oral in all cases and were maintained for 30 days. The values indicated are the average obtained in 6 animals per group.
FIG. 14. Effect of treatment with vehicle (control) or with the fatty acids of the invention (600 mg/kg) on the levels of cholesterol, triglycerides and glucose. The values indicated are the average of the values obtained in 6 animals. Each group of three bars represents treatment with a different fatty acid with the left bar corresponding to cholesterol, the middle bar to triglycerides and the right bar to glucose.
Metabolic diseases form a set of pathologies characterised by the accumulation or deficit of certain molecules (cholesterol, triglycerides, glucose, etc.) in the serum or tissues. These changes are the reflection of dysfunctions that are normally associated with errors in the activity of certain enzymes or in the control of these proteins. Among the most important metabolopathies are hypercholesterolemia (elevated levels of cholesterol), hypertriglyceridemia (elevated levels of triglycerides) and diabetes (elevated levels of glucose). These pathologies have high rates of incidence, morbidity and mortality, so that treatment is a first order necessity. […] For these experiments, the dose of fatty acid indicated (0, 200, 400 and 600 mg/kg) was supplied daily via the oral route. At the end of the treatment (30 days), blood was sampled from control and treated animals (n=6) and the levels of cholesterol, triglycerides and glucose were determined using standard colorimetric methods.
In a further experiment, the effect of various molecules at a single dose (600 mg/kg) was investigated. […] In this sense, modification on the α-carbon and the double bond in cis configuration are crucial elements for producing the therapeutic effect indicated above. […] Finally, the effect of α-derivatives of cis-monounsaturated fatty acids on the prevention of obesity was investigated. For this, a model of rat obesity induced by a cafeteria diet, where the hypercaloric food increases the weight of the animals very markedly, was used. There were various experimental groups (see Table 3), each of which consisted of 6 female Wistar Kyoto rats of 250-300 g in weight. All the animals received a standard diet for 2 weeks. In addition, 2 of the groups received an oral preventative pre-treatment of vehicle and the other groups received 300 mg/kg of the fatty acids indicated below. Afterwards, one of the control groups was maintained on a standard diet (lean control) and the other was fed on a cafeteria diet (obese control). The treated animal groups were fed on the cafeteria diet. Preventative pre-treatment was maintained for all the groups. After two weeks on these diets, the lean control group had increased their body weight by an average of 16±16 g, while the obese control group had increased their body weight by an average of 43±17 g (statistically significance difference, p<0.01).

A549 cells = experiment: Growth/viability of A549 lung cancer cells in culture (cell count); format: cell-based, human; parameters: key to Anti-tumour effect: + [inhibition of growth]; ++ [total halt of growth]; +++ [total removal of tumour cells]; conditions: for IC50: concentration that reduces the number of cells to half
Protocol: FIG. 3A. Cancer cells (A549) were treated with various concentrations of OHOD and MOD11 to determine whether the effect was dependent on the concentration. […] These cells were treated with different concentrations (0-400 μM) of OHOD and MOD11 and the number of cells was determined by flow cytometry.
FIG. 3B. Cancer cells (A549) were treated with compounds indicated on the horizontal axis for 48 hours at 150 μM. Then, the cells were counted and their number and percent of untreated (control) represented on the vertical axis.
Also, a series of α-derivatives of cis-monounsaturated fatty acids were used to investigate their effectiveness in cancer treatment. Two types of experiment were performed. Firstly, the dependency of the anti-tumour effect on concentration was investigated. To perform these experiments, human lung cancer cells (A549) were cultivated in RPMI medium, supplemented with 10% foetal bovine […], 10 mM Hepes (pH 7.4), 2 mM glutamine, 2 g/l bicarbonate, 1 g/l glucose, 100 units/ml penicillin, 0.1 mg/ml streptomycin, 0.25 μg/ml Amphotericin B, at 37° C. and in the presence of 5% CO2. In a first experimental series, these cells were treated with various concentrations (0-400 μM) of OHOD and MOD11 and the number of cells was determined by flow cytometry (FIG. 3A). […] In a second series, the anti-tumour effectiveness on A549 lung cancer cells was investigated at a single concentration (150 μM) and a time of 48 hours (FIG. 3B). […] Obviously, among the previous molecules, some lacked both modifications on the α-carbon and the double bond in cis configuration (EO, HDO, ODO) and had no therapeutic effect. […]

[3] = OHOD 200, 400, 600 mg/kg oral daily, 30 days, Sprague-Dawley rats, p<0.05

Q: Which “Body weight (g) (control = 311 g)” value [1] does the source give for CCCCCCCC/C=C\CCCCCCC(OC)C(=O)O (stereo not drawn) [MOOD, α-Methoxy-cis-Δ9-octadecenoic] here?
A: 279 g

Q: What about the IC50 (SF767 human tumour cells) of the same molecule?
A: 73 µM

Q: What about the “PA (control 214 mmHg)” value (hypertensive rats) of the same molecule?
A: 142 mmHg

Q: And the “% control CHO (cholesterol)” value [2]?
A: 65 % control

Q: What about the “% control TG (triglycerides)” value [2] of the same molecule?
A: 64 % control

Q: And the IC50 (A549 cells)?
A: 61 µM

Q: What does the source list for CCCCCCCC/C=C\CCCCCCC(O)C(=O)[O-].[Na+] (centres unmarked) [Na-OHOD]?
A: Body weight (g) (control = 311 g) [1]: 281 g; IC50 (SF767 human tumour cells): 52 µM; PA (control 214 mmHg) (hypertensive rats): 128 mmHg; % control CHO (cholesterol) [2]: 51 % control; % control TG (triglycerides) [2]: 32 % control; IC50 (A549 cells): 47 µM

Q: With CCCCCCCC/C=C\CCCCCCC(O)C(=O)O (stereo not drawn) [OHOD, α-Hydroxy-cis-Δ9-octadecenoic] as the molecule, how does the “Body weight (g) (control = 311 g)” value [1] read?
A: 292 g

Q: And the Anti-tumour effect (SF767 human tumour cells; SF-767, Glioma)?
A: ++

Q: And the Mechanism of action (SF767 human tumour cells; SF-767, Glioma)?
A: D

Q: What about the IC50 (SF767 human tumour cells) of the same molecule?
A: 71 µM

Q: And the “PA (control 214 mmHg)” value (hypertensive rats)?
A: 146 mmHg

Q: What about the cholesterol levels [2, 3] of the same molecule?
A: significant reductions

Q: What about the glucose levels [2, 3] of the same molecule?
A: significant reductions

Q: What about the triglycerides levels [2, 3] of the same molecule?
A: significant reductions

Q: What about the “% control CHO (cholesterol)” value [2] of the same molecule?
A: 55 % control

Q: What about the “% control TG (triglycerides)” value [2] of the same molecule?
A: 38 % control

Q: And the Anti-tumour effect (A549 cells; A549, Lung)?
A: +++

Q: And the Mechanism of action (A549 cells; A549, Lung)?
A: P D

Q: What about the “effect on tumour cells at 200 to 400 μM” value (A549 cells; Doses of 200 to 400 μM, A549) of the same molecule?
A: total elimination of tumour cells

Q: And the IC50 (A549 cells)?
A: 62 µM
